Reference: patent US6818643B1, “Neurotrophic bicyclic diamides” (Bristol-Myers Squibb Company, priority 1999, dated 2004)
Where two headings read alike, the source gives them in different places.

Target: FKBP12 (Homo sapiens, UniProt P62942)
Assay: Fluorescence Polarization (FP) Assay of FKBP12 Binding
Details: for inhibition at 1 µM: read-out: % FP inhibition at 1 μM; for Ki: rotamase Ki derived from FP assay
Protocol: Fluorescence Polarization (FP) Assay of FKBP12 Binding
The buffer (25 mM HEPES, 100 mM sodium chloride, pH 7.5) with pre-mixed enzyme and fluorescent ligand is distributed into wells (190 μL/well). Inhibitors are added as 10 μL of a 10% dimethylsulfoxide solution in the same buffer. FP is measured with an excitation wavelength of 485 nm and emission wavelength of 520 nm.

[1] = Table 2, 1 μM compound, 100 nM fluorescent ligand, 200 nM FKBP12
[2] = Table 1, 1 μM compound, 100 nM fluorescent ligand, 200 nM FKBP12

Chain of FKBP12 (P62942 whole entry, species assumed): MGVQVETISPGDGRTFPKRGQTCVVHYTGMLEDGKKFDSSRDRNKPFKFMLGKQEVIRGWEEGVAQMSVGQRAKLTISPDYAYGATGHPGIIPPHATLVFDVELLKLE

| SMILES | inhibition at 1 µM [1] [%] | inhibition at 1 µM [2] [%] | further results |
| --- | --- | --- | --- |
| COc1ccc(CCCC(CCCc2ccccc2)N2CC3CCCC(C2=O)N3C(=O)C(=O)c2cc(OC)c(OC)c(OC)c2)cc1OC (stereo not drawn) [Example 21, 9-(3,4,5-Trimethoxyphenyl)oxalyl-3,9-diaza-3-[4-(3,4-dimethoxyphenyl)-1-(3-phenylpropyl)butyl]bicyclo[3.3.1]nonan-2-one] | 1 | – | – |
| COc1ccc(CCCCN2CC3CCCC(C2=O)N3C(=O)C(=O)c2cc(OC)c(OC)c(OC)c2)cc1OC (stereo not drawn) [Example 17, 9-(3,4,5-Trimethoxyphenyl)oxalyl-3,9-diaza-3-[4-(3,4-dimethoxyphenyl)butyl]bicyclo[3.3.1]-nonan-2-one] | – | 79 | Ki (Table 1): 140 nM |
| COc1ccc(CCCC(CCCc2ccc(OC)c(OC)c2)CN2CC3CCCC(C2=O)N3C(=O)C(=O)c2cc(OC)c(OC)c(OC)c2)cc1OC (stereo not drawn) [Example 24, 9-(3,4,5-Trimethoxyphenyl)oxalyl-3,9-diaza-3-[5-(3,4-dimethoxyphenyl)-2-(3-(3,4-dimethoxy-phenyl)propyl)pentyl]bicyclo-[3.3.1]nonan-2-one] | – | – | Ki (Table 2): 21 nM |
| COc1cc(C(F)(F)C(=O)N2C3CCC2C(=O)N(CC(CCCc2ccccc2)CCCc2ccccc2)C3)cc(OC)c1OC [Example 33, (1S,5R)-8-(3,4,5-Trimethoxyphenyl)difluoroacetyl-3,8-diaza-3-[5-phenyl-2-(3-phenyl-propyl)pentyl]bicyclo[3.2.1]-octan-2-one] | 7 | – | – |
| COc1cc(C(=O)C(=O)N2C3CCCC2C(=O)N(CCCCCc2ccccc2)C3)cc(OC)c1OC (stereo not drawn) [Example 20, 9-(3,4,5-Trimethoxyphenyl)oxalyl-3,9-diaza-3-(5-phenylpentyl)bicyclo[3.3.1]nonan-2-one] | – | – | Ki (Table 1): 152 nM |
| COc1ccc(CCC(Cc2ccc(OC)c(OC)c2)CN2CC3CCCC(C2=O)N3C(=O)C(=O)c2cc(OC)c(OC)c(OC)c2)cc1OC (stereo not drawn) [Example 25, 9-(3,4,5-Trimethoxyphenyl)oxalyl-3,9-diaza-3-[4-(3,4-dimethoxyphenyl)-2-((3,4-dimethoxy-phenyl)methyl)butyl]bicyclo-[3.3.1]nonan-2-one] | – | – | Ki (Table 2): 18 nM |
| COc1ccc(CCCN2CC3CCCC(C2=O)N3C(=O)C(F)(F)c2cc(OC)c(OC)c(OC)c2)cc1OC (stereo not drawn) [Example 35, 9-(3,4,5-Trimethoxyphenyl)difluoroacetyl-3,9-diaza-3-[3-(3,4-dimethoxyphenyl)propyl]bicyclo[3.3.1]nonan-2-one] | – | – | Ki (Table 1): 360 nM; inhibition at 1 µM: 47% |
| COc1ccc(CCCN2CC3CCCC(C2=O)N3C(=O)C(=O)c2cc(OC)c(OC)c(OC)c2)cc1OC (stereo not drawn) [Example 16, 9-(3,4,5-Trimethoxyphenyl)oxalyl-3,9-diaza-3-[3-(3,4-dimethoxyphenyl)propyl]bicyclo[3.3.1]nonan-2-one] | – | 76 | Ki (Table 1): 150 nM |
| COc1ccc(CCCC(CCCc2ccc(OC)c(OC)c2)CN2C[C@H]3CC[C@@H](C2=O)N3C(=O)C(=O)c2cc(OC)c(OC)c(OC)c2)cc1OC [Example 12, (1S,5R)-8-(3,4,5-Trimethoxyphenyl)oxalyl-3,8-diaza-3-[5-(3,4-dimethoxyphenyl)-2-(3-(3,4-dimethoxyphenyl)propyl)pentyl]bicyclo[3.2.1]octan-2-one] | – | – | Ki (Table 2): 47 nM |
| COc1ccc(CCN2CC3CCC(C2=O)N3C(=O)C(=O)c2cc(OC)c(OC)c(OC)c2)cc1OC [Example 2, (1S,5R)-8-(3,4,5-Trimethoxyphenyl)oxalyl-3,8-diaza-3-[2-(3,4-dimethoxyphenyl)ethyl]bicyclo[3.2.1]octan-2-one] | – | 3 | – |
| COc1ccc(CCCN2CC3CCC(C2=O)N3C(=O)C(F)(F)c2cc(OC)c(OC)c(OC)c2)cc1OC [Example 28, (1S,5R)-8-(3,4,5-Trimethoxyphenyl)difluoroacetyl-3,8-diaza-3-[3-(3,4-dimethoxyphenyl)propyl]bicyclo[3.2.1]octan-2-one] | – | 13 | – |
| COc1cc(CCCN2C[C@H]3CC[C@@H](C2=O)N3C(=O)C(=O)c2cc(OC)c(OC)c(OC)c2)cc(OC)c1OC [Example 6, (1S,5R)-8-(3,4,5-Trimethoxyphenyl)oxalyl-3,8-diaza-3-[3-(3,4,5-trimethoxyphenyl)propyl]bicyclo[3.2.1]octan-2-one] | – | 47 | Ki (Table 1): 242 nM |
| CCC(C)(C)C(=O)C(=O)N1C2CCC1C(=O)N(CCCc1cc(OC)c(OC)c(OC)c1)C2 (stereo not drawn) [Example 39, 1-{3,8-Diaza-2-oxo-3-[3-(3,4,5-trimethoxyphenyl)propyl]bicyclo[3.2.1]oct-8-yl}-3,3-dimethylpentane-1,2-dione] | – | 4 | – |
| COc1cc(C(=O)C(=O)N2C3CCCC2C(=O)N(CC(CCCc2ccccc2)CCCc2ccccc2)C3)cc(OC)c1OC (stereo not drawn) [Example 22, 9-(3,4,5-Trimethoxyphenyl)oxalyl-3,9-diaza-3-[5-phenyl-2-(3-phenylpropyl)pentyl]bicyclo[3.3.1]nonan-2-one] | 17 | – | – |
| COc1ccc(CCCCN2CC3CCCC(C2=O)N3C(=O)C(F)(F)c2cc(OC)c(OC)c(OC)c2)cc1OC (stereo not drawn) [Example 36, 9-(3,4,5-Trimethoxyphenyl)difluoroacetyl-3,9-diaza-3-[4-(3,4-dimethoxyphenyl)butyl]bicyclo[3.3.1]-nonan-2-one] | – | – | Ki (Table 1): 160 nM; inhibition at 1 µM: 61% |
| COc1cc(CCCC(CCCc2ccccc2)CN2CC3CCCC(C2=O)N3C(=O)C(=O)c2cc(OC)c(OC)c(OC)c2)cc(OC)c1OC (stereo not drawn) [Example 23, 9-(3,4,5-Trimethoxyphenyl)oxalyl-3,9-diaza-3-[2-(3-phenylpropyl)-5-(3,4,5-trimethoxyphenyl)pentyl]bicyclo[3.3.1]-nonan-2-one] | 81 | – | Ki (Table 2): 44 nM |
| COc1cc(CCCC(CCCc2ccccc2)CN2CC3CCCC(C2=O)N3C(=O)C(F)(F)c2cc(OC)c(OC)c(OC)c2)cc(OC)c1OC (stereo not drawn) [Example 38, 9-(3,4,5-Trimethoxyphenyl)difluoroacetyl-3,9-diaza-3-[2-(3-phenylpropyl)-5-(3,4,5-trimethoxyphenyl)pentyl]bicyclo[3.3.1]-nonan-2-one] | 50 | – | – |
| COc1cc(C(=O)C(=O)N2[C@@H]3CC[C@H]2C(=O)N(CCCc2ccccc2)C3)cc(OC)c1OC [Example 1, (1S,5R)-8-(3,4,5-Trimethoxyphenyl)oxalyl-3,8-diaza-3-(3-phenylpropyl)bicyclo[3.2.1]octan-2-one] | – | 34 | Ki (Table 1): 699 nM |
| COc1cc(C(=O)C(=O)N2C3CCC2C(=O)N(CC(CCCc2ccccc2)CCCc2ccccc2)C3)cc(OC)c1OC [Example 10, (1S,5R)-8-(3,4,5-Trimethoxyphenyl)oxalyl-3,8-diaza-3-[5-phenyl-2-(3-phenyl-propyl)pentyl]bicyclo[3.2.1]-octan-2-one] | 14 | – | – |
| COc1cc(C(=O)C(=O)N2C3CCC2C(=O)N(CCCOc2cccnc2)C3)cc(OC)c1OC [Example 8, (1S,5R)-8-(3,4,5-Trimethoxyphenyl)oxalyl-3,8-diaza-3-(3-(3-pyridyloxy)propyl)-bicyclo[3.2.1]octan-2-one] | – | 98 | – |
| COc1ccc(CCC(CCc2ccccc2)CN2CC3CCCC(C2=O)N3C(=O)C(=O)c2cc(OC)c(OC)c(OC)c2)cc1OC (stereo not drawn) [Example 26, 9-(3,4,5-Trimethoxyphenyl)oxalyl-3,9-diaza-3-[4-(3,4-dimethoxyphenyl)-2-(2-phenylethyl)butyl]-bicyclo[3.3.1]nonan-2-one] | – | – | Ki (Table 2): 51 nM |
| COC(=O)C(=O)N1C2CCCC1C(=O)N(CCCc1cc(OC)c(OC)c(OC)c1)C2 (stereo not drawn) [Example 40, Methyl-2-{3,9-diaza-2-oxo-3-[3-(3,4,5-trimethoxyphenyl)propyl]bicyclo[3.3.1]non-9-yl}-2-oxoacetate] | – | 6 | – |
| COc1cc(CCCC(CCCc2ccccc2)CN2CC3CCC(C2=O)N3C(=O)C(F)(F)c2cc(OC)c(OC)c(OC)c2)cc(OC)c1OC [Example 34, (1S,5R)-8-(3,4,5-Trimethoxyphenyl)difluoroacetyl-3,8-diaza-3-[2-(3-phenylpropyl)-5-(3,4,5-trimethoxyphenyl)pentyl]bicyclo[3.2.1]octan-2-one] | 11 | – | – |
| COc1ccc(CCC(CCc2ccccc2)CN2C[C@H]3CC[C@@H](C2=O)N3C(=O)C(=O)c2cc(OC)c(OC)c(OC)c2)cc1OC (stereo partly drawn) [Example 14, (1S,5R)-8-(3,4,5-Trimethoxyphenyl)oxalyl-3,8-diaza-3-[4-(3,4-dimethoxyphenyl)-2-(2-phenylethyl)butyl]-bicyclo[3.2.1]octan-2-one] | – | – | Ki (Table 2): 169 nM |
| COc1ccc(CCCC(CCCc2ccccc2)N2CC3CCC(C2=O)N3C(=O)C(=O)c2cc(OC)c(OC)c(OC)c2)cc1OC [Example 9, (1S,5R)-8-(3,4,5-Trimethoxyphenyl)oxalyl-3,8-diaza-3-[4-(3,4-dimethoxyphenyl)-1-(3-phenylpropyl)butyl]bicyclo[3.2.1]octan-2-one] | 1 | – | – |
| COc1cc(C(=O)C(=O)N2C3CCC2C(=O)N(CCCCc2ccccc2)C3)cc(OC)c1OC [Example 7, (1S,5R)-8-(3,4,5-Trimethoxyphenyl)oxalyl-3,8-diaza-3-(4-phenylbutyl)bicyclo[3.2.1]octan-2-one] | – | 6 | – |
| COc1cc(C(=O)C(=O)N2C3CCCC2C(=O)N(CCCCc2ccccc2)C3)cc(OC)c1OC (stereo not drawn) [Example 19, 9-(3,4,5-Trimethoxyphenyl)oxalyl-3,9-diaza-3-(4-phenylbutyl)bicyclo[3.3.1]nonan-2-one] | – | – | Ki (Table 1): 85 nM |
| COc1cc(C(F)(F)C(=O)N2C3CCC2C(=O)N(CCCCc2ccccc2)C3)cc(OC)c1OC [Example 32, (1S,5R)-8-(3,4,5-Trimethoxyphenyl)difluoroacetyl-3,8-diaza-3-(4-phenylbutyl)bicyclo-[3.2.1]octan-2-one] | – | 4 | – |
| COc1cc(CCCC(CCCc2ccccc2)CN2CC3CCC(C2=O)N3C(=O)C(=O)c2cc(OC)c(OC)c(OC)c2)cc(OC)c1OC [Example 11, (1S,5R)-8-(3,4,5-Trimethoxyphenyl)oxalyl-3,8-diaza-3-[2-(3-phenylpropyl)-5-(3,4,5-trimethoxyphenyl)pentyl]bicyclo[3.2.1]octan-2-one] | 17 | – | – |
